Measurements published in patent US20020013295A1, “Naaladase inhibitors for treating amyotrophic lateral sclerosis” (priority 2000, published 2002).
Residues, ends and D or L forms follow the SMILES beside them.

Legend:
transgenic SOD mice = assay: Effect of NAALADase inhibitor on onset of clinical disease, transgenic mice model of FALS; assay type: in vivo; details: for Disease onset for compound treated mice: 50 mg/kg, from one month old
Procedure: The effect of NAALADase inhibitors on the onset of ALS was tested using the transgenic mice model of familial amyotrophic lateral sclerosis (FALS), which is detailed in Gurney, M., Annals of Neurology (1996) 39:147-157, and otherwise well known in the art. One month old transgenic SOD mice were treated with daily intraperitoneal injections of a vehicle (50 mM HEPES-buffered saline) or a NAALADase inhibitor (50 mg/kg 2-[[(2,3,4,5,6-pentafluorobenzyl)hydroxyphosphinyl]methyl]-pentanedioic acid (“Compound A” )). Clinical symptoms of the mice were monitored daily. The onset of clinical disease was scored by examining each mouse for its shaking of limbs when suspended in the air by its tail, cross spread of spinal reflexes, hindlimb paralysis, body weight and wheel running activity.

NAALADase = NAALADase (Rattus norvegicus, UniProt P70627); details: NAAG as substrate of NAALADase; cited from earlier work
Sequence of NAALADase (P70627 whole entry): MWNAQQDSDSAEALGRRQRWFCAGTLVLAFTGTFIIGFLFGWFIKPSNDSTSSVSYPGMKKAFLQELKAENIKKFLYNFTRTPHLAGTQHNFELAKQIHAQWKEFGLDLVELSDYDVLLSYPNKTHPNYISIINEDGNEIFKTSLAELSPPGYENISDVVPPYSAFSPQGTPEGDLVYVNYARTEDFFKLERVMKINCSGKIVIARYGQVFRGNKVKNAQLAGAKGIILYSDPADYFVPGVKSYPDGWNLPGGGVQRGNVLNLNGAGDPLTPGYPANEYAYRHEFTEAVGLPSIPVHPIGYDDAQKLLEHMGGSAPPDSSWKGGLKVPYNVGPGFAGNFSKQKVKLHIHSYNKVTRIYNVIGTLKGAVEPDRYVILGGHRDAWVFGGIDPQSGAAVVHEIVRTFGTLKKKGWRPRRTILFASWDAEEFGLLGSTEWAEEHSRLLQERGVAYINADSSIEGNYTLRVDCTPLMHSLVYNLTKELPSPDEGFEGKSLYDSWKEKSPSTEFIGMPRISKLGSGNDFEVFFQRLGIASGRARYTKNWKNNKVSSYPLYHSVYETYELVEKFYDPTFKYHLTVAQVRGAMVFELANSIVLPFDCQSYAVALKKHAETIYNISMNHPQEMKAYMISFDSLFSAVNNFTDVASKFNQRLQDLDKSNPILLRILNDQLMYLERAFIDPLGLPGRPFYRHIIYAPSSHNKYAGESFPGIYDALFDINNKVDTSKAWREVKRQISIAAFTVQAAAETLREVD

SMILES | Difference in disease onset, compound treated vs vehicle treated mice (transgenic SOD mice; Study 1) | Disease onset for compound treated mice (transgenic SOD mice; Study 1, daily intraperitoneal injections) | Difference in disease onset, compound treated vs vehicle treated mice (transgenic SOD mice; Study 2) | Disease onset for compound treated mice (transgenic SOD mice; Study 2, daily intraperitoneal injections) | Km (NAALADase)
O=C(O)CCC(CCCS)C(=O)O (centres unmarked) [Compound B, 2-(3-sulfanylpropyl)pentanedioic acid] | 32 | 221 days of age | 25 | 166 days of age | 
CC(=O)N[C@@H](CC(=O)O)C(=O)N[C@@H](CCC(=O)O)C(=O)O [NAAG, N-acetyl-aspartyl-glutamate] (Ac-Asp-Glu-OH) |  |  |  |  | 0.54 µM
